Measured values as given in US11241434B2, “Compositions and methods for improving cognition in a subject” (Yale University, priority 2013, dated 2022).

Legend:
[1] = test system: APPswe/PS1ΔE9 transgenic mice; experiment: Novel Object Recognition in AD transgenic mice; assay type: in vivo, mouse; details: 5 weeks treatment
[2] = dog, 6 month study, cited from earlier work
Fyn (phospho-Src pY416) = experiment: pY416 and Fyn immunoblot of hippocampus of WT mice fed AZD0530 diet; assay type: in vivo, mouse; details: diet pellets 5 mg/kg/d, 9 months, vs Vehicle
Excerpt: FIGS. 17A-17C illustrate reduced Fyn activation in mice fed AZD0530-containing food. FIG. 17A: Representative blots using anti-pY416, Fyn, and 8-actin antibodies of the RIPA-soluble fraction of the hippocampus of WT mice treated with Vehicle or AZD0530 for 9 months. FIG. 17B: Quantification of pY416-immunoreactive bands from the immunoblot from FIG. 17A by densitometric analysis. The bands indicated by an arrow in FIG. 17A were quantified. The band intensity was normalized to that of 8-actin and then normalized to the mean of the Vehicle-treated WT group. Data are represented as mean±SEM. n=6/group. *p<0.05; t-test. FIG. 17C: Quantification of Fyn-immunoreactive bands from the immunoblot in FIG. 17A by densitometric analysis. The band intensity was normalized to that of β-actin and then normalized to the mean of the Vehicle-treated WT group. Data are represented as mean±SEM. n=6/group. t-test.
To generate chow containing chow for chronic dosing, the compound was incorporated into purified diet pellets by Research Diets, Inc. by dissolving the compound in a solution of 0.5% w/v Hydroxypropylmethylcellulose/0.1% w/v polysorbate 80 at 1.429 mg/ml. […] The dosage of the drug in the food was calculated to take into account the average amount of food eaten by a mouse in a single day per kg of weight and adjusted to be equivalent to ingesting 5 mg/kg per day. […]

[3] = Phase Ib study, CSF and plasma saracatinib levels (LC/MS/MS); assay type: in vivo, human; details: for estimated human brain concentration: using ratio of CSF:Brain in mouse; for trough CSF / free concentration of saracatinib in plasma / increase in CSF level: human; for free concentration of saracatinib in plasma: from trough CSF levels and FIG. 8 correlation
Procedure: Each point is from a different individual. The different dose groups are illustrated with different colors.
Each point represents trough CSF saracatinib level from a different human subject for the left three columns. The mouse trough CSF values are derived from brain levels at the 5 mg/kg/d dose that rescued memory deficits in FIGS. 3-5. Bars represent mean+sem.
Plasma samples are analyzed using solid-phase extraction followed by HPLCMS/MS. […] Calibration, quality control (QC) or blank plasma samples (200 μL) are pipetted into a standard 96-well plate. The appropriate internal standard (20 μL) is added to all samples (except the double blank to which 20 μL of methanol is added). 2% ammonium solution (1000 μL) is added to all wells and mixed. Solid-phase extraction is performed using Oasis HLB 30 mg 1 mL 96-well plates. The samples are conditioned with 1 mL methanol then 1 mL 2% ammonium solution. A 1 mL sample is loaded, washed with 1 mL 25:75, v:v methanol:water and eluted with 0.8 mL methanol. The samples are dried under oxygen-free nitrogen at 35° C. The dry residues are reconstituted in 200 μL of mobile phase, vortex mixed and transferred to 96-well plates. The vials are loaded onto HPLC-MS/MS and injected onto the reversed phase HPLC system. Calibration samples are prepared and analyzed in duplicate at LLOQ (lower limit of quantification) and ULOQ (upper limit of quantitation) and singly at all other levels. Independently prepared QC samples covering the calibration range are analyzed in duplicate and in triplicate at the dilution QC level. Plasma concentration data are quantified using an HPLC-MS/MS method and analyzed by standard methods using WinNonLin version 4.1 (Pharsight Corporation, Mountain View, Calif.).
Subjects were enrolled in three cohorts of 8 subjects each.
In certain embodiments, obtaining the scans worked as a pilot to the collection of brain metabolism data for the Phase 2a trial. In addition, saracatinib levels were measured in this study using a GLP-validated LC/MS/MS assay. […] CSF levels are about a third of plasma free drug levels.

In the case of `CN1CCN(CCOc2cc(OC3CCOCC3)c3c(Nc4c(Cl)ccc5c4OCO5)ncnc3c2)CC1` [saracatinib, N-(5-chloro-benzo[d][1,3]dioxol-4-yl)-7-(2-(4-methylpiperazin-1-yl)ethoxy)-5-(tetrahydro-2H-pyran-4-yloxy)quinazolin-4-amine], the “Novel Object Recognition performance” value [1] is given as “performance equal to the WT mice”, the toxicity ([2]; 5 mg/kg/d) is given as “mild GI toxicity” and the NOAEL [2] is given as 0.5 mg/kg/day. For the same compound, the “total Fyn levels in hippocampus” value (Fyn (phospho-Src pY416)) was “no difference”, the “estimated human brain concentration” value ([3]; 50 mg saracatinib free base) was 3 to 7 nM and the “estimated human brain concentration” value ([3]; 100 mg saracatinib free base) was 7 to 27 nM. For the same compound, the “estimated human brain concentration” value ([3]; 125 mg saracatinib free base) was 8 to 46 nM, the “trough CSF” value ([3]; 50 mg saracatinib free base daily) was 0.9 to 2.2 nM and the “free concentration of saracatinib in plasma” value (from here on “free concentration”) ([3]; 50 mg) was 2.6 to 6.5 nM. For the same compound, the “trough CSF” value ([3]; 100 mg saracatinib free base daily) was 2.1 to 8.3 nM, the “free concentration” value ([3]; 100 mg) was 6.2 to 24.4 nM and the “trough CSF” value ([3]; 125 mg saracatinib free base daily) was 2.5 to 14.0 nM. The “free concentration” value ([3]; 125 mg) was 7.4 to 41.2 nM, the “increase in CSF level” value ([3]; from 50 to 100 mg) was “three-fold” and the “increase in CSF level” value ([3]; from 100 to 125 mg) was “two-fold”.
